Assay results taken from patent US20070054868A1, “Synergistic polyphenol compounds, compositions thereof, and uses thereof” (The Trustees of Columbia University in the City of New York, priority 2005, published 2007).

System: EGFR, ERK1, ERK2, and AKT
Test: Phosphorylation of signaling proteins in HT29 cells
Assay type: cell-based, human
Protocol: These effects were detected with as little as […] of EGCG, and within 5 minutes. Phosphorylation of EGFR, ERK1, ERK2, and AKT were suppressed in cells treated with methyl-β-cyclodextrin, which depletes plasma membrane cholesterol. […] In addition, the inhibitory effect of EGCG on phosphorylation of EGFR was not blocked by the addition of cholesterol on the growth medium. These findings provide evidence that EGCG can alter membrane domain organization in colon cancer cells ant that this is not due to cholesterol depletion. It was noted that pre-treatment of the cells with EGCG or Poly E inhibited the binding of Alexa 488-labeled EGF to the cell surface receptor EGFR.

## methyl-β-cyclodextrin [reference compound]
  phosphorylation of EGFR, ERK1, ERK2, and AKT: suppressed
